Experimental data from US9549932B2, “2-(morpholin-4-yl)-1,7-naphthyridines” (BAYER PHARMA AKTIENGESELLSCHAFT, priority 2014, dated 2017).

Each molecule was assayed against full-length human ATR protein (Homo sapiens (Human), UniProt Q13535) (assay: Binding assay ATR (TR-FRET tracer displacement)). Conditions: tracer A, TR-FRET; read-out: ATR binding (tracer A) IC50.
Procedure, shortened: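 Full-length human GST-ATR co-purified with ATRIP, pre-complexed 30 min at 22 °C with anti-GST-Tb antibody, then pre-bound with compound 10 min. Tracer A or B added (2 µl of 100 nM solution), 30 min at 22 °C.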

Chain of full-length human ATR protein (Q13535 other isoform, or with tags, fused parts or gaps): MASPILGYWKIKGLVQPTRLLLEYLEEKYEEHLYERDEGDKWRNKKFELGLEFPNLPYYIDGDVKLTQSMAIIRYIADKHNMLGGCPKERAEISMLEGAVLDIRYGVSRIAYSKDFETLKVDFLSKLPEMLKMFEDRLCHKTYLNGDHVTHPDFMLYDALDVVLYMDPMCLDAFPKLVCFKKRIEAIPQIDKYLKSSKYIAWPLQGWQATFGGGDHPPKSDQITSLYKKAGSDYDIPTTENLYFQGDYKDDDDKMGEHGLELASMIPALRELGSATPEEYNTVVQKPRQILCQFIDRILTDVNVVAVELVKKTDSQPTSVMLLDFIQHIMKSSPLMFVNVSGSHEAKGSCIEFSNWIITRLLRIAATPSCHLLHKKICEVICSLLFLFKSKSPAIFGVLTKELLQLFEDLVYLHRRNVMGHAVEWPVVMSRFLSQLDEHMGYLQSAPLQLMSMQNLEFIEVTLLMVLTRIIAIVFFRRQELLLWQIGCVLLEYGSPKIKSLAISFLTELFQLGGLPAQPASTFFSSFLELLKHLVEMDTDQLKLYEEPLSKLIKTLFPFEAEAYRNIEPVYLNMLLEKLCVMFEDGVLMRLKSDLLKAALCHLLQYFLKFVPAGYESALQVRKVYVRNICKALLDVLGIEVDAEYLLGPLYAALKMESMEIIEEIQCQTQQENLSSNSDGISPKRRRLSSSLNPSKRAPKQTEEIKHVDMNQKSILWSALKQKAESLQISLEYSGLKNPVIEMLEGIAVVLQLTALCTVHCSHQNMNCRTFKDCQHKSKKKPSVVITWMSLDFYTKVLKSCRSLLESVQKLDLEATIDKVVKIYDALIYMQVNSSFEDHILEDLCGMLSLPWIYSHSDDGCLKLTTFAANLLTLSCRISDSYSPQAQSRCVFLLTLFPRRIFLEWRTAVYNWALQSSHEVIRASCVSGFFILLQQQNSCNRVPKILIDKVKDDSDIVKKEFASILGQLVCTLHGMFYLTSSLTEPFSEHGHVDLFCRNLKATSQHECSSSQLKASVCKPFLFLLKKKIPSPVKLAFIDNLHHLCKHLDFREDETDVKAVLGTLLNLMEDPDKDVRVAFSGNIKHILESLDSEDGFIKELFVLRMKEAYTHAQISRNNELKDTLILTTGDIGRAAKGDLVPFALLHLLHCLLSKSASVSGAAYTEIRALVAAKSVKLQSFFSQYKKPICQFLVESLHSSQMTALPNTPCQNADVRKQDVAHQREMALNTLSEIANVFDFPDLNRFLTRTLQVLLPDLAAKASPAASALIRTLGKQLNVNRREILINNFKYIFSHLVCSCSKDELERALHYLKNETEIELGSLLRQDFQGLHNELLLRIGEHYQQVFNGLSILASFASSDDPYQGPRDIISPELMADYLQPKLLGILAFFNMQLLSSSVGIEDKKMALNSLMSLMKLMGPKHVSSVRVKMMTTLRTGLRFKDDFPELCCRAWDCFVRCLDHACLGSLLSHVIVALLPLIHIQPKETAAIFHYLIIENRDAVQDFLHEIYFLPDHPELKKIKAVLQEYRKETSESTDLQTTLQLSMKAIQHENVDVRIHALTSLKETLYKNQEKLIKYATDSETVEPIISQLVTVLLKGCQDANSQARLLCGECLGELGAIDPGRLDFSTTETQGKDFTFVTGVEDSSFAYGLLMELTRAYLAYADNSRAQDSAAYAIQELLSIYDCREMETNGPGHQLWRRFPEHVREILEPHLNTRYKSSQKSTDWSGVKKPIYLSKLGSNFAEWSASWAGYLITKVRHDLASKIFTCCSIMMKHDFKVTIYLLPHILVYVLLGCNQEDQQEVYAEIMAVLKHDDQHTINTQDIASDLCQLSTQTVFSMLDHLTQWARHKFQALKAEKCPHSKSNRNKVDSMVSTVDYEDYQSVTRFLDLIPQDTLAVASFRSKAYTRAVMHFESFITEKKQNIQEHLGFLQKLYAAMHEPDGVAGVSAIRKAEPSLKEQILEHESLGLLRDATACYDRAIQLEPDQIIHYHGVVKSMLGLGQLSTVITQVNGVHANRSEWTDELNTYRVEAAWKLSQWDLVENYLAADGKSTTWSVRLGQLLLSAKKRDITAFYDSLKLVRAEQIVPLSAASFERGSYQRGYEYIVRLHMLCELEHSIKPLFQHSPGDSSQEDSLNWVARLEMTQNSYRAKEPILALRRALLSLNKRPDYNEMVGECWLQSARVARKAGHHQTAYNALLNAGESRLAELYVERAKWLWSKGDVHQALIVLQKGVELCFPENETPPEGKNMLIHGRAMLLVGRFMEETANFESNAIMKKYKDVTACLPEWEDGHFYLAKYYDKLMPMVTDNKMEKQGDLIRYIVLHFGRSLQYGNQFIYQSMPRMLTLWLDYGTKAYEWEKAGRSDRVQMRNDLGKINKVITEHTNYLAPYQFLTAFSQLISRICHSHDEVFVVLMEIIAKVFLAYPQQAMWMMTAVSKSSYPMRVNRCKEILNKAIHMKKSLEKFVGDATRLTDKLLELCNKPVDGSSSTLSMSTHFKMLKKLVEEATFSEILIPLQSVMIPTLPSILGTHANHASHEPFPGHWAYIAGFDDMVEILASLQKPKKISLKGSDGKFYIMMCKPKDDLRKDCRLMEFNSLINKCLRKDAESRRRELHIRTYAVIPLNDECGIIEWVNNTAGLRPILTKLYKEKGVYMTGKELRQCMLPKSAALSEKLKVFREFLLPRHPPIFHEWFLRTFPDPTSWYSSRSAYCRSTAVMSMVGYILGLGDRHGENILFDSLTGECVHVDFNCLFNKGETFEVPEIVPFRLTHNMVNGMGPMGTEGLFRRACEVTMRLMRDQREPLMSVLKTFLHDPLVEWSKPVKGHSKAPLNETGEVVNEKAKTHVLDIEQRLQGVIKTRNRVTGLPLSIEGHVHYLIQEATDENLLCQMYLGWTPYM
Chain of full-length human ATR protein (Q8WXE1 other isoform, or with tags, fused parts or gaps partner): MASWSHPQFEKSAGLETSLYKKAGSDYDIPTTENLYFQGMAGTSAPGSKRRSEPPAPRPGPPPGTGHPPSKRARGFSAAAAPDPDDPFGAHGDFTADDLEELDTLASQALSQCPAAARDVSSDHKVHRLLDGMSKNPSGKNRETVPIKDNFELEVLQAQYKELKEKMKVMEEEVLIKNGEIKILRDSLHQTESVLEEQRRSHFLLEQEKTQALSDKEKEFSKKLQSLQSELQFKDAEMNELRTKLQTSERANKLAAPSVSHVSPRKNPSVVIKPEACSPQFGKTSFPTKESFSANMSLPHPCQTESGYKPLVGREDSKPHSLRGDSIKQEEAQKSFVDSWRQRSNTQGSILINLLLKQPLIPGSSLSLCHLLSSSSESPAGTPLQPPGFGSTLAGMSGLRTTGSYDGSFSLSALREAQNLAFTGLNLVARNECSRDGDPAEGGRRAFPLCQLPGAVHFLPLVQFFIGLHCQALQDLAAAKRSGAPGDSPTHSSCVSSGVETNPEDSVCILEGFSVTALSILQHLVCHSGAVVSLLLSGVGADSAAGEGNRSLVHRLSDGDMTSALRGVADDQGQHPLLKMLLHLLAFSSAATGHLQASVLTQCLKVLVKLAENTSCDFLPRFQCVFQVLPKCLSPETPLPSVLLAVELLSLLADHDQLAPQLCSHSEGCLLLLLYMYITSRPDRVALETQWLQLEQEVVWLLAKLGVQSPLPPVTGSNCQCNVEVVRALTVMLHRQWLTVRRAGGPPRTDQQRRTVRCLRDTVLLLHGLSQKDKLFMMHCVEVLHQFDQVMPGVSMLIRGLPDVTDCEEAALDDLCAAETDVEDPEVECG

Going from `c1cc(-c2nccc3c(N4CCCCC4)cc(N4CCOCC4)nc23)[nH]n1` [Example 408, 2-(morpholin-4-yl)-4-(piperidin-1-yl)-8-(1H-pyrazol-5-yl)-1,7-naphthyridine] to `c1cc(-c2nccc3c(N4CCCCCC4)cc(N4CCOCC4)nc23)[nH]n1` [Example 413, 4-(azepan-1-yl)-2-(morpholin-4-yl)-8-(1H-pyrazol-5-yl)-1,7-naphthyridine], the IC50 rises from 65.1 nM to 279 nM (4.3-fold). The first is the more potent here.

Compared with `OC1CCN(c2cc(N3CCOCC3)nc3c(-c4ccn[nH]4)nccc23)CC1` [Example 409, 1-[2-(morpholin-4-yl)-8-(1H-pyrazol-5-yl)-1,7-naphthyridin-4-yl]piperidin-4-ol], `CC1CCN(c2cc(N3CCOCC3)nc3c(-c4ccn[nH]4)nccc23)CC1` [Example 415, 4-(4-methylpiperidin-1-yl)-2-(morpholin-4-yl)-8-(1H-pyrazol-5-yl)-1,7-naphthyridine] is 4.3-fold lower in IC50: 139 nM for the first, 32.7 nM for the second.

Compared with `CN(c1ccccc1)c1cc(N2CCOCC2)nc2c(-c3ccn[nH]3)nccc12` [Example 410, N-methyl-2-(morpholin-4-yl)-N-phenyl-8-(1H-pyrazol-5-yl)-1,7-naphthyridin-4-amine], `CN(c1cccc(F)c1)c1cc(N2CCOCC2)nc2c(-c3ccn[nH]3)nccc12` [Example 424, N-(3-fluorophenyl)-N-methyl-2-(morpholin-4-yl)-8-(1H-pyrazol-5-yl)-1,7-naphthyridin-4-amine] is 1.6-fold higher in IC50: 153 nM for the first, 241 nM for the second. The first is the more potent here.

Going from `CCCN(C)c1cc(N2CCOCC2)nc2c(-c3ccn[nH]3)nccc12` [Example 412, N-methyl-2-(morpholin-4-yl)-N-propyl-8-(1H-pyrazol-5-yl)-1,7-naphthyridin-4-amine] to `CC(C)CN(C)c1cc(N2CCOCC2)nc2c(-c3ccn[nH]3)nccc12` [Example 423, N-methyl-N-(2-methylpropyl)-2-(morpholin-4-yl)-8-(1H-pyrazol-5-yl)-1,7-naphthyridin-4-amine], the IC50 falls from 162 nM to 83.9 nM (1.9-fold). The second is the more potent here.

Going from `NC(=O)C1CCCN(c2cc(N3CCOCC3)nc3c(-c4ccn[nH]4)nccc23)C1` (stereo not shown) [Example 416, 1-[2-(morpholin-4-yl)-8-(1H-pyrazol-5-yl)-1,7-naphthyridin-4-yl]piperidine-3-carboxamide] to `FC1CCCN(c2cc(N3CCOCC3)nc3c(-c4ccn[nH]4)nccc23)C1` (stereo not shown) [Example 426, 4-(3-fluoropiperidin-1-yl)-2-(morpholin-4-yl)-8-(1H-pyrazol-5-yl)-1,7-naphthyridine], the IC50 falls from 251 nM to 159 nM (1.6-fold). The second is the more potent here.

Compared with `C1=CCN(c2cc(N3CCOCC3)nc3c(-c4ccn[nH]4)nccc23)C1` [Example 417, 4-(2,5-dihydro-1H-pyrrol-1-yl)-2-(morpholin-4-yl)-8-(1H-pyrazol-5-yl)-1,7-naphthyridine], `c1ccc2c(c1)CN(c1cc(N3CCOCC3)nc3c(-c4ccn[nH]4)nccc13)C2` [Example 420, 4-(1,3-dihydro-2H-isoindol-2-yl)-2-(morpholin-4-yl)-8-(1H-pyrazol-5-yl)-1,7-naphthyridine] is 1.8-fold lower in IC50: 1070 nM for the first, 602 nM for the second. The second is the more potent here.

`c1ccc2c(c1)CCCN2c1cc(N2CCOCC2)nc2c(-c3ccn[nH]3)nccc12` [Example 418, 4-(3,4-dihydroquinolin-1(2H)-yl)-2-(morpholin-4-yl)-8-(1H-pyrazol-5-yl)-1,7-naphthyridine] and `c1ccc2c(c1)CCN(c1cc(N3CCOCC3)nc3c(-c4ccn[nH]4)nccc13)C2` [Example 419, 4-(3,4-dihydroisoquinolin-2(1H)-yl)-2-(morpholin-4-yl)-8-(1H-pyrazol-5-yl)-1,7-naphthyridine] are within 1.5-fold of each other in IC50: 94.1 nM for the first, 118 nM for the second.

Going from `CC(C)(C)OC(=O)[C@@H]1CCCN1c1cc(N2CCOCC2)nc2c(-c3ccn[nH]3)nccc12` [Example 422, tert-butyl 1-[2-(morpholin-4-yl)-8-(1H-pyrazol-5-yl)-1,7-naphthyridin-4-yl]-prolinate] to `O=S1(=O)CCC12CN(c1cc(N3CCOCC3)nc3c(-c4ccn[nH]4)nccc13)C2` [Example 425, 4-(1,1-dioxido-1-thia-6-azaspiro[3.3]hept-6-yl)-2-(morpholin-4-yl)-8-(1H-pyrazol-5-yl)-1,7-naphthyridine], the IC50 falls from 2240 nM to 1000 nM (2.2-fold). The second is the more potent here.
